# From patent publication US20260022142A1, “MACROCYCLIC IMMUNOMODULATORS” (Bristol-Myers Squibb Company, priority 2022, published 2026)
# Bridge positions count the residues as written; N and C are the ends. Square brackets hold non-standard residues; d marks the D form. Peptide text beside a SMILES is read from it. * marks the point of attachment. ξ: configuration not given here. Phe(3,4,5-F3) = N[C@@H](Cc1cc(F)c(F)c(F)c1)C(=O)O; Phe(4-CONH2) = NC(=O)c1ccc(C[C@H](N)C(=O)O)cc1; Phe(4-COOH) = N[C@@H](Cc1ccc(C(=O)O)cc1)C(=O)O; Bip = N[C@@H](Cc1ccc(-c2ccccc2)cc1)C(=O)O; Phe(4-NH2) = Nc1ccc(C[C@H](N)C(=O)O)cc1; Phe(3-Me) = Cc1cccc(C[C@H](N)C(=O)O)c1; Abu(3S-NH2) = C[C@H](N)[C@H](N)C(=O)O; NH(CH2)12COOH = O=C(O)CCCCCCCCCCCCN*; Val(3-OH) = CC(C)(O)[C@H](N)C(=O)O; hArg = N=C(N)NCCCC[C@H](N)C(=O)O; 4Pal = N[C@@H](Cc1ccncc1)C(=O)O; Aad = N[C@@H](CCCC(=O)O)C(=O)O; Cha = N[C@@H](CC1CCCCC1)C(=O)O; Cit = NC(=O)NCCC[C@H](N)C(=O)O; Thr(3ξ) = CC(O)[C@H](N)C(=O)O; 12Ado = NCCCCCCCCCCCC(=O)O; dNle = CCCC[C@@H](N)C(=O)O; Carboxymethyl = O=C(O)C*; Orn = NCCC[C@H](N)C(=O)O; Aun = NCCCCCCCCCCC(=O)O; Dab = NCC[C@H](N)C(=O)O; Dap = NC[C@H](N)C(=O)O; AEEA = NCCOCCOCC(=O)O
# Molecular target: T1, PD-1/PD-L1 interaction (PE-labeled human PD-L1-Ig binding to Jurkat cell line over-expressing human PD-1) (Homo sapiens, UniProt Q15116)
# T1 construct: expressed in transfected cells; host or cells: Jurkat
# Experiment: Jurkat-PD-1 Cell Binding High-Content Screening Assay (CBA)
# Type: cell-based
# Details: Jurkat cell line over-expressing human PD-1; PE-labeled PD-L1-Ig 20 nM final; read-out: Jurkat hPD1-PDL1 IC50
# Method in brief: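 First, compound is added to PD-1-expressing Jurkat cells in serum-containing DMEM and left 2 h at 37° C. Next, PE-conjugated PD-L1-Ig is introduced at 20 nM final concentration for 1 hour. Finally, cells are fixed in 4% paraformaldehyde with Hoechst 33342, washed and imaged.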
# T1 sequence (Q15116 25-288): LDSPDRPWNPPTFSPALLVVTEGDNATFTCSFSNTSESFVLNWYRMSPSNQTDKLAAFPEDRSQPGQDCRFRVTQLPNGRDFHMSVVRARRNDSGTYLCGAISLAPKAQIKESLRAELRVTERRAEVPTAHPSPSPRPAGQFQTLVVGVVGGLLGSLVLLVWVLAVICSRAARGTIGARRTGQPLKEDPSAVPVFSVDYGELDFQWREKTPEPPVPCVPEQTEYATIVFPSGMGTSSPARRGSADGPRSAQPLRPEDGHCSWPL
row,IC50 [nM],Structure (SMILES)
1,11.3,Cc1cccc(C[C@@H]2NC(=O)[C@H](CC(=O)O)NC(=O)[C@H](Cc3ccc(OCC(=O)O)cc3)NC(=O)[C@H](CN)NC(=O)CSC[C@@H](C(=O)N[C@@H](CCN)C(=O)NCCCCCCCCCCC(=O)O)NC(=O)[C@H](CO)NC(=O)[C@H]([C@H](C)N)NC(=O)[C@H](CC3CCCCC3)NC(=O)[C@H](CCN)NC(=O)[C@@H](CC(C)C)NC(=O)[C@H](CCCN)NC(=O)[C@H](Cc3ccc(OCC(=O)O)cc3)NC(=O)[C@H](Cc3ccc(-c4ccccc4)cc3)NC(=O)[C@H](Cc3ccc(OCC(=O)O)cc3)NC2=O)c1 [Compound 2174] ({CH2CO}-[Dap]Y(Carboxymethyl)D[Phe(3-Me)]Y(Carboxymethyl)[Bip]Y(Carboxymethyl)[Orn][dL][Dab][Cha][Abu(3S-NH2)]SC[Dab][Aun]-OH; thioether N-14)
2,30.5,Cc1cccc(C[C@@H]2NC(=O)[C@H](CC(=O)O)NC(=O)[C@H](Cc3ccc(OCC(=O)O)cc3)NC(=O)[C@H](CCN)NC(=O)CSC[C@@H](C(=O)N[C@@H](CO)C(=O)NCCCCCCCCCCC(=O)O)NC(=O)[C@H](C(C)O)NC(=O)[C@H](C(C)(C)O)NC(=O)[C@H](CC3CCCCC3)NC(=O)[C@H](CCN)NC(=O)[C@@H](CC(C)C)NC(=O)[C@H](CCCN)NC(=O)[C@H](Cc3ccc(O)cc3)NC(=O)[C@H](Cc3ccc(-c4ccccc4)cc3)NC(=O)[C@H](Cc3ccc(C(N)=O)cc3)NC2=O)c1 (stereo partly drawn) [Compound 3725] ({CH2CO}-[Dab]Y(Carboxymethyl)D[Phe(3-Me)][Phe(4-CONH2)][Bip]Y[Orn][dL][Dab][Cha][Val(3-OH)][Thr(3ξ)]CS[Aun]-OH; thioether N-14)
3,22.7,CCCC[C@H]1NC(=O)[C@H](CCCN)NC(=O)[C@H](C(C)C)NC(=O)[C@H](Cc2ccc(-c3ccccc3)cc2)NC(=O)[C@H](C(C)C)NC(=O)[C@H](Cc2c[nH]c3ccccc23)NC(=O)[C@H](CC(=O)O)NC(=O)[C@H](Cc2ccc(OCC(=O)O)cc2)NC(=O)[C@H](CN)NC(=O)CSC[C@@H](C(=O)NCCOCCOCC(=O)N[C@@H](CCN)C(=O)NCCCCCCCCCCC(=O)O)NC(=O)[C@H](CCCCN)NC(=O)[C@H](C(C)C)NC(=O)[C@H](CC2CCCCC2)NC(=O)[C@H](CCN)NC1=O [Compound 2672] ({CH2CO}-[Dap]Y(Carboxymethyl)DWV[Bip]V[Orn][dNle][Dab][Cha]VKC[AEEA][Dab][Aun]-OH; thioether N-14)
4,6,Cc1cccc(C[C@@H]2NC(=O)[C@H](CC(=O)O)NC(=O)[C@H](Cc3ccc(OCC(=O)O)cc3)NC(=O)[C@H](CN)NC(=O)CSC[C@@H](C(=O)N[C@@H](C)C(=O)N[C@@H](CC(=O)O)C(=O)NCC(=O)NCCCCCCCCCCC(=O)O)NC(=O)[C@H]([C@@H](C)O)NC(=O)[C@H](C(C)C)NC(=O)[C@H](CC3CCCCC3)NC(=O)[C@H](CCN)NC(=O)[C@@H](CC(C)C)NC(=O)[C@H](CCCN)NC(=O)[C@H](CCCNC(N)=O)NC(=O)[C@H](Cc3ccc(-c4ccccc4)cc3)NC(=O)[C@H](C(C)C)NC2=O)c1 [Compound 1002] ({CH2CO}-[Dap]Y(Carboxymethyl)D[Phe(3-Me)]V[Bip][Cit][Orn][dL][Dab][Cha]VTCADG[Aun]-OH; thioether N-14)
5,26.5,Cc1cccc(C[C@@H]2NC(=O)[C@H](CC(=O)O)NC(=O)[C@H](Cc3ccc(OCC(=O)O)cc3)NC(=O)[C@H](CCCCNC(=N)N)NC(=O)CSC[C@@H](C(=O)NCC(=O)NCCOCCOCC(=O)N[C@@H](CCN)C(=O)NCCCCCCCCCCC(=O)O)NC(=O)[C@H](CCCN)NC(=O)[C@H](C(C)C)NC(=O)[C@H](CC3CCCCC3)NC(=O)[C@H](CCN)NC(=O)[C@@H](CC(C)C)NC(=O)[C@H](CCCN)NC(=O)[C@H](C(C)C)NC(=O)[C@H](Cc3ccc(-c4ccccc4)cc3)NC(=O)[C@H](C(C)C)NC2=O)c1 [Compound 3246] ({CH2CO}-[hArg]Y(Carboxymethyl)D[Phe(3-Me)]V[Bip]V[Orn][dL][Dab][Cha]V[Orn]CG[AEEA][Dab][Aun]-OH; thioether N-14)
6,3.5,Cc1cccc(C[C@@H]2NC(=O)[C@H](CC(=O)O)NC(=O)[C@H](Cc3ccc(OCC(=O)O)cc3)NC(=O)[C@H](C)NC(=O)CSC[C@@H](C(=O)N[C@@H](CCN)C(=O)NCCOCCOCC(=O)NCCCCCCCCCCC(=O)O)NC(=O)[C@H](CO)NC(=O)[C@H](C(C)(C)O)NC(=O)[C@H](CC3CCCCC3)NC(=O)[C@H](CCN)NC(=O)[C@@H](CC(C)C)NC(=O)[C@H](CCCN)NC(=O)[C@H](Cc3ccc(C(=O)O)cc3)NC(=O)[C@H](Cc3ccc(-c4ccccc4)cc3)NC(=O)[C@H](Cc3ccc(C(=O)O)cc3)NC2=O)c1 [Compound 3769] ({CH2CO}-AY(Carboxymethyl)D[Phe(3-Me)][Phe(4-COOH)][Bip][Phe(4-COOH)][Orn][dL][Dab][Cha][Val(3-OH)]SC[Dab][AEEA][Aun]-OH; thioether N-14)
7,9.7,Cc1cccc(C[C@@H]2NC(=O)[C@H](CC(=O)O)NC(=O)[C@H](Cc3ccc(OCC(=O)O)cc3)NC(=O)[C@H](CCCCNC(=N)N)NC(=O)CSC[C@@H](C(=O)N[C@@H](CCCN)C(=O)N[C@@H](CO)C(=O)NCCCCCCCCCCCC(=O)O)NC(=O)[C@H](C(C)O)NC(=O)[C@H](C(C)C)NC(=O)[C@H](CC3CCCCC3)NC(=O)[C@H](CCN)NC(=O)[C@@H](CC(C)C)NC(=O)[C@H](CCCN)NC(=O)[C@H](CCCNC(N)=O)NC(=O)[C@H](Cc3ccc(-c4ccccc4)cc3)NC(=O)[C@H](C(C)C)NC2=O)c1 (stereo partly drawn) [Compound 3187] ({CH2CO}-[hArg]Y(Carboxymethyl)D[Phe(3-Me)]V[Bip][Cit][Orn][dL][Dab][Cha]V[Thr(3ξ)]C[Orn]S[12Ado]-OH; thioether N-14)
8,31.3,Cc1cccc(C[C@@H]2NC(=O)[C@H](CC(=O)O)NC(=O)[C@H](Cc3ccc(OCC(=O)O)cc3)NC(=O)[C@H](CN)NC(=O)CSC[C@@H](C(=O)N[C@@H](CCN)C(=O)NCCCCCCCCCCC(=O)O)NC(=O)[C@H](CO)NC(=O)[C@H](C(C)C)NC(=O)[C@H](CC3CCCCC3)NC(=O)[C@H](CCN)NC(=O)[C@@H](CC(C)C)NC(=O)[C@H](CCCN)NC(=O)[C@H](Cc3ccc(O)cc3)NC(=O)[C@H](Cc3ccc(-c4ccccc4)cc3)NC(=O)[C@H](C(C)C)NC2=O)c1 [Compound 2718] ({CH2CO}-[Dap]Y(Carboxymethyl)D[Phe(3-Me)]V[Bip]Y[Orn][dL][Dab][Cha]VSC[Dab][Aun]-OH; thioether N-14)
9,17.9,Cc1cccc(C[C@@H]2NC(=O)[C@H](CC(=O)O)NC(=O)[C@H](Cc3ccc(OCC(=O)O)cc3)NC(=O)[C@H](CCCC(=O)O)NC(=O)CSC[C@@H](C(=O)N[C@@H](CCN)C(=O)NCCCCCCCCCCCCC(=O)O)NC(=O)[C@H](CO)NC(=O)[C@H](C(C)(C)O)NC(=O)[C@H](CC3CCCCC3)NC(=O)[C@H](CCN)NC(=O)[C@@H](CC(C)C)NC(=O)[C@H](CCCN)NC(=O)[C@H](Cc3ccc(OCC(=O)O)cc3)NC(=O)[C@H](Cc3ccc(-c4ccccc4)cc3)NC(=O)[C@H](Cc3ccc(OCC(=O)O)cc3)NC2=O)c1 [Compound 2259] ({CH2CO}-[Aad]Y(Carboxymethyl)D[Phe(3-Me)]Y(Carboxymethyl)[Bip]Y(Carboxymethyl)[Orn][dL][Dab][Cha][Val(3-OH)]SC[Dab]-{NH(CH2)12COOH}; thioether N-14)
10,144,Cc1cccc(C[C@@H]2NC(=O)[C@H](CC(=O)O)NC(=O)[C@H](Cc3ccc(C(=O)O)cc3)NC(=O)[C@H](Cc3ccncc3)NC(=O)CSC[C@@H](C(=O)N[C@@H](CCN)C(=O)NCCCCCCCCCCC(=O)O)NC(=O)[C@H](CO)NC(=O)[C@H](C(C)(C)O)NC(=O)[C@H](CC3CCCCC3)NC(=O)[C@H](CCN)NC(=O)[C@@H](CC(C)C)NC(=O)[C@H](CCCN)NC(=O)[C@H](Cc3ccc(OCC(=O)O)cc3)NC(=O)[C@H](Cc3ccc(-c4ccccc4)cc3)NC(=O)[C@H](Cc3ccc(OCC(=O)O)cc3)NC2=O)c1 [Compound 2177] ({CH2CO}-[4Pal][Phe(4-COOH)]D[Phe(3-Me)]Y(Carboxymethyl)[Bip]Y(Carboxymethyl)[Orn][dL][Dab][Cha][Val(3-OH)]SC[Dab][Aun]-OH; thioether N-14)
11,28.8,"Cc1cccc(C[C@@H]2NC(=O)[C@H](CC(=O)O)NC(=O)[C@H](Cc3cc(F)c(F)c(F)c3)NC(=O)[C@H](Cc3ccncc3)NC(=O)CSC[C@@H](C(=O)N[C@@H](CCN)C(=O)NCCCCCCCCCCC(=O)O)NC(=O)[C@H](CO)NC(=O)[C@H](C(C)(C)O)NC(=O)[C@H](CC3CCCCC3)NC(=O)[C@H](CCN)NC(=O)[C@@H](CC(C)C)NC(=O)[C@H](CCCN)NC(=O)[C@H](Cc3ccc(OCC(=O)O)cc3)NC(=O)[C@H](Cc3ccc(-c4ccccc4)cc3)NC(=O)[C@H](Cc3ccc(OCC(=O)O)cc3)NC2=O)c1 [Compound 2200] ({CH2CO}-[4Pal][Phe(3,4,5-F3)]D[Phe(3-Me)]Y(Carboxymethyl)[Bip]Y(Carboxymethyl)[Orn][dL][Dab][Cha][Val(3-OH)]SC[Dab][Aun]-OH; thioether N-14)"
12,17.2,Cc1cccc(C[C@@H]2NC(=O)[C@H](CC(=O)O)NC(=O)[C@H](Cc3ccc(OCC(=O)O)cc3)NC(=O)[C@H](Cc3ccc(N)cc3)NC(=O)CSC[C@@H](C(=O)N[C@@H](CCN)C(=O)NCCCCCCCCCCC(=O)O)NC(=O)[C@H]([C@@H](C)O)NC(=O)[C@H](C(C)C)NC(=O)[C@H](CC3CCCCC3)NC(=O)[C@H](CCN)NC(=O)[C@@H](CC(C)C)NC(=O)[C@H](CCCN)NC(=O)[C@H](Cc3ccc(OCC(=O)O)cc3)NC(=O)[C@H](Cc3ccc(-c4ccccc4)cc3)NC(=O)[C@H](Cc3ccc(OCC(=O)O)cc3)NC2=O)c1 [Compound 2147] ({CH2CO}-[Phe(4-NH2)]Y(Carboxymethyl)D[Phe(3-Me)]Y(Carboxymethyl)[Bip]Y(Carboxymethyl)[Orn][dL][Dab][Cha]VTC[Dab][Aun]-OH; thioether N-14)
